Test [1] relates to C. pneumoniae. In words: C. pneumoniae protocol that treats HEp-G2 cells with cycloheximide. Type of test: cell-based, Chlamydia pneumoniae. The note with it: cycloheximide 1 μg/mL.
Test [2] concerns Chlamydia pneumoniae. In words: Chlamydia pneumoniae infection of HEp-G2 cells, Protocol 2 (compound added 15 h after challenge). The test is classed as cell-based. The note with it: for MIC: Chlamydia pneumoniae, Protocol 2, compound added 15 h after challenge of HEp-G2 cells. The method, then: (§1) Protocol 1 was performed in 96-well flat-bottom microtiter plates. Each well contained 100 μL of 10^6 HEp-G2 cells/ml in standard medium that had been incubated for 24 h at 37° C. in 5% CO2. Compound stocks were prepared in dimethylsulfoxide, diluted in two-fold serial dilutions, and added to each well as 10 μL aliquots. Each compound concentration was assayed in triplicate. Elementary bodies (chlamydial stock) were diluted to contain 2×10^4inclusion-forming units (ifu) per milliliter and 90 μL was added to each well. Infection was allowed to proceed for 72 h at 37° C. in 5% CO2, after which the cells were fixed and stained with genus-reactive anti-LPS antibody. The use of a fluorescein (FITC)-conjugated secondary antibody allowed the number of inclusion-containing cells to be identified via inverted fluorescent microscopy. The minimum inhibitory concentration (MIC) was defined as the lowest concentration of compound that inhibited the formation of inclusions. The minimal bactericidal concentration (MBC) was defined as the lowest concentration of compound that prevented the formation of inclusions after the compound had been removed by the addition of fresh medium and the cultures had been incubated for a further 48 h. Procedures for growth and preparation of C. pneumoniae and HEp-G2 cells are described in Kalayoglu, M. V., et al., J. Infect. Dis., 1999, 180:780-790. Methodology for detecting inclusions using an direct fluorescent antibody technique is found in Byrne, G. I., et al. J. Infect. Dis., 1993, 168:415-420.
Protocol 2 was nearly identical to protocol 1 except that compound was added 15 h after challenge of HEp-G2 cells with C. pneumoniae. This protocol helps distinguish compounds that interfere with latter stages of C. pneumoniae growth and replication.

Test [3] has as its system Chlamydia pneumoniae. In words: Chlamydia pneumoniae infection of HEp-G2 cells, Protocol 1. The note with it: for MIC / MBC: Chlamydia pneumoniae, Protocol 1; for MIC: HEp-G2 cells, 72 h infection, lowest concentration that inhibited the formation of inclusions; for MBC: no inclusions after compound removed and further 48 h incubation; for activity against growth of C. pneumoniae in HEp-2 cells: as shown in Table 2. The test is classed as cell-based. The method, then:
as §1

Structures are written as SMILES. In brackets after ≈: the same amount, converted by molar mass.

On to `O=C(N[C@@H](Cc1ccccc1)C(=O)N1CC(O)C1)c1cc2cc(Cl)ccc2[nH]1` [Compound 2], for which, in test [1], the “MICs in a protocol that treats HEp-G2 cells with cycloheximide” value was “did not differ”. Further, 50 µg/mL (≈ 126 µM) was the least that counted as inhibitory in test [2] (MIC). Besides, in test [3], the lowest concentration to inhibit growth (MIC) was 25 µg/mL (≈ 62.8 µM), the MBC stood at 25 µg/mL (≈ 62.8 µM) and the “activity against growth of C. pneumoniae in HEp-2 cells” value is on record as “exhibited activity”.
`O=C(N[C@@H](Cc1ccc(F)cc1)C(=O)N1CCC(O)CC1)c1cc2cc(Cl)ccc2[nH]1` [Compound 1]: the “MICs in a protocol that treats HEp-G2 cells with cycloheximide” value in test [1] was “did not differ”. Moreover, in test [2], the MIC turned out to be 12.5 µg/mL (≈ 28.2 µM). Besides, the “interfering with the latter stage of pneumoniae growth and replication” value in test [2] (comparison of compound 1 with compound 2) is recorded as “superior to compound 2”. For the same molecule, in test [3], the MIC is 12.5 µg/mL (≈ 28.2 µM), the MBC came to 25 µg/mL (≈ 56.3 µM) and the “activity against growth of C. pneumoniae in HEp-2 cells” value is “exhibited activity”.

Usually MIC stands for the lowest concentration that inhibits growth of the organism. A higher MIC goes with weaker potency. The term MBC denotes the smallest concentration meeting the test's criterion for killing.

The record behind these values is patent US6555569B2, “Use of heteroaryl substituted N-(indole-2-carbonyl-) amides for treatment of infection” (Pfizer Inc., priority 2000, dated 2003).
